Data taken from ChEMBL document CHEMBL3301361, “Experimental in vitro DMPK and physicochemical data on a set of publicly disclosed compounds”.
≈ marks a conversion by molar mass, not a printed value. Residues, ends and D or L forms follow the SMILES beside them.

Assays:
in vitro [1] = conditions: Beagle, dog, plasma
in vitro [2] = conditions: human
in vitro [3] = conditions: human, plasma
in vitro [4] = conditions: human, hepatocytes
physchem [5] = conditions: octan-1-ol/water
in vitro [6] = conditions: hepatocytes
in vitro [7] = conditions: SD, HW or BN, rat, plasma
physchem [8] = conditions: pH 7.4 buffer

## COc1cc(-n2cnc3cc(-c4ccc(Cl)cc4)sc3c2=O)ccc1OC[C@H](OP(=O)(O)O)C1CC1 [BMS-830216]
In vitro [1]
  fraction unbound at 5 h: 0.0084
In vitro [2]; liver microsomes
  microsomal CLint: < 3 µL/min/mg
In vitro [3]; PPB
  fraction unbound at 5 h: 0.0061
In vitro [4]
  hepatocyte CLint: 12.3 µL/min/1e6 cells
Physchem [5]; pH 7.4, LogD7.4
  logD: -0.04

## CCN(CC)CCN1C(=O)C(O)(c2ccccc2Cl)c2c1cc(C(N)=O)cc2C(F)(F)F (configuration not stated)
In vitro [1]
  fraction unbound at 5 h: 0.212
In vitro [4]
  hepatocyte CLint: 15.1 µL/min/1e6 cells

## CC(C)(C)NC(=O)NCCN1CCN(CC(=O)NC23CC4CC(CC(C4)C2)C3)CC1
In vitro [1]
  fraction unbound at 5 h: 0.24
In vitro [4]
  hepatocyte CLint: 33.9 µL/min/1e6 cells

## CC1=C(C)C(=O)C(C(CCCCCC(=O)O)c2ccccc2)=C(C)C1=O (configuration not stated) [SERATRODAST]
In vitro [1]
  fraction unbound at 5 h: 0.02
In vitro [2]; microsomes
  microsomal CLint: 3 µL/min/mg
In vitro [6]
  hepatocyte CLint: 85 µL/min/1e6 cells
Physchem [5]; pH 7.4, LogD7.4
  logD: 2.48

## COc1ccc(CCN2C(=O)N(NS(C)(=O)=O)C[C@H]2c2ccc(OC)cc2)cc1
In vitro [1]
  fraction unbound at 5 h: 0.089
In vitro [3]; PPB
  fraction unbound at 5 h: 0.0633
In vitro [4]
  hepatocyte CLint: 21.9 µL/min/1e6 cells
In vitro [7]
  fraction unbound at 5 h: 0.0568

## CC(C)(C)NC(=O)NCCN1CC(NC(=O)c2cc(Cl)cc(Cl)c2)C1
In vitro [1]
  fraction unbound at 5 h: 0.0784
In vitro [3]; PPB
  fraction unbound at 5 h: 0.0928
In vitro [4]
  hepatocyte CLint: 3.31 µL/min/1e6 cells
In vitro [7]
  fraction unbound at 5 h: 0.101

## CC(C)(N)C(=O)N[C@H](COCc1ccccc1)C(=O)N1CCC2(CC1)CN(S(C)(=O)=O)c1ccccc12 [IBUTAMOREN]
In vitro [1]
  fraction unbound at 5 h: 0.212
In vitro [3]; PPB
  fraction unbound at 5 h: 0.232
In vitro [4]
  hepatocyte CLint: 14.4 µL/min/1e6 cells
In vitro [7]
  fraction unbound at 5 h: 0.253
Physchem [5]; pH 7.4, LogD7.4
  logD: 1.4

## COCCOC(=O)C1=C(C)NC(C)=C(C(=O)OC(C)C)C1c1cccc([N+](=O)[O-])c1 (configuration not stated) [NIMODIPINE]
In vitro [1]
  fraction unbound at 5 h: 0.0116
In vitro [3]; PPB
  fraction unbound at 5 h: 0.0183
Physchem [8]
  solubility thermodynamic: 3.1 µM (≈ 1.3 µg/mL)
In vitro [7]
  fraction unbound at 5 h: 0.0175
Physchem [5]; pH 7.4, LogD7.4
  logD: 3.8

## CCOc1cc2ncc(C(N)=O)c(Nc3ccc(C)cc3F)c2cc1N1CCN(C)CC1
In vitro [1]
  fraction unbound at 5 h: 0.183
In vitro [2]; microsomes
  microsomal CLint: 26 µL/min/mg
In vitro [6]
  hepatocyte CLint: 12 µL/min/1e6 cells
In vitro [7]
  fraction unbound at 5 h: 0.151

## CC[C@H](CO)Nc1nc(SCc2ccccc2)nc2[nH]c(=O)sc12
In vitro [1]
  fraction unbound at 5 h: 0.0053
In vitro [3]; PPB
  fraction unbound at 5 h: 0.0016
In vitro [4]
  hepatocyte CLint: 10 µL/min/1e6 cells

## O=C(Nc1ccccc1F)N[C@H]1N=C(c2ccccc2)c2ccccc2NC1=O [RSV-604]
In vitro [1]
  fraction unbound at 5 h: 0.0307
In vitro [3]
  fraction unbound at 5 h: 0.0366
Physchem [8]
  solubility thermodynamic: 2.6 µM (≈ 1.01 µg/mL)
In vitro [7]
  fraction unbound at 5 h: 0.0274
Physchem [5]; pH 7.4
  logD: 4

## C#CC[C@@H](C(=O)N[C@H](/C=C/C(=O)OCC)C[C@@H]1CCNC1=O)n1cccc(NC(=O)c2cc(C)on2)c1=O [IMOCITRELVIR]
In vitro [1]
  fraction unbound at 5 h: 0.535
In vitro [2]; microsomes
  microsomal CLint: 20.9 µL/min/mg
In vitro [3]; PPB
  fraction unbound at 5 h: 0.443
In vitro [6]
  hepatocyte CLint: > 150 µL/min/1e6 cells
Physchem [5]; pH 7.4, LogD7.4
  logD: 1.75

## Cc1cc(Nc2cnc(C#N)c(N[C@@H](C)c3ccc(F)cn3)n2)n[nH]1
In vitro [1]
  fraction unbound at 5 h: 0.204
In vitro [3]; PPB
  fraction unbound at 5 h: 0.145
In vitro [7]
  fraction unbound at 5 h: 0.16
Physchem [5]; pH 7.4, LogD7.4
  logD: 2.51

## Cc1cn([C@H]2CCCN([C@@H](C)c3ccc(C(=O)O)c(Oc4cccc(Cl)c4)c3)C2)c(=O)[nH]c1=O
In vitro [1]
  fraction unbound at 5 h: 0.0532
In vitro [3]; PPB
  fraction unbound at 5 h: 0.0229
In vitro [7]
  fraction unbound at 5 h: 0.0268
Physchem [5]; pH 7.4, LogD7.4
  logD: -0.26

## CCOC(=O)C1=C(C)NC(C)=C(C(=O)OC)C1c1cccc([N+](=O)[O-])c1 (configuration not stated) [NITRENDIPINE]
In vitro [1]
  fraction unbound at 5 h: 0.0108
In vitro [2]; liver microsomes
  microsomal CLint: 85 µL/min/mg
In vitro [3]; PPB
  fraction unbound at 5 h: 0.009
In vitro [6]
  hepatocyte CLint: 75 µL/min/1e6 cells
In vitro [7]
  fraction unbound at 5 h: 0.0077

## Cc1ccc(C(=O)c2ccc(CC(=O)O)n2C)cc1 [TOLMETIN]
In vitro [1]
  fraction unbound at 5 h: 0.0477
In vitro [2]; microsomes
  microsomal CLint: 4 µL/min/mg
In vitro [3]; PPB
  fraction unbound at 5 h: 0.0028
In vitro [6]
  hepatocyte CLint: 7.33 µL/min/1e6 cells
In vitro [7]
  fraction unbound at 5 h: 0.0287
Physchem [5]; pH 7.4, LogD7.4
  logD: -1.02

## Cc1cn([C@H]2CCCN([C@H](CC(C)(C)C)c3ccc(C(=O)O)c(Oc4cccc(Br)c4)c3)C2)c(=O)[nH]c1=O
In vitro [1]
  fraction unbound at 5 h: 0.0268
In vitro [3]; PPB
  fraction unbound at 5 h: 0.0287
In vitro [6]
  hepatocyte CLint: 49 µL/min/1e6 cells
In vitro [7]
  fraction unbound at 5 h: 0.0149
Physchem [5]; pH 7.4, LogD7.4
  logD: 1.09

## COC[C@H](O)Cn1c(=O)cnn(-c2ccc(Cl)c(C(=O)NCC3(O)CCCCCC3)c2)c1=O [CE-224535]
In vitro [1]
  fraction unbound at 5 h: 0.552
In vitro [3]; PPB
  fraction unbound at 5 h: 0.415
In vitro [7]
  fraction unbound at 5 h: 0.477
Physchem [5]; pH 7.4, LogD7.4
  logD: 1.46

## Cc1cc(Nc2cnc(C#N)c(N[C@@H](C)c3ncc(F)cn3)n2)n[nH]1
In vitro [1]
  fraction unbound at 5 h: 0.398
In vitro [3]; PPB
  fraction unbound at 5 h: 0.186
In vitro [7]
  fraction unbound at 5 h: 0.376
Physchem [5]; pH 7.4, LogD7.4
  logD: 1.96

## CC(C)(N)C(=O)N[C@H](COCc1ccc(F)cc1F)C(=O)N1CCC2=NN(CC(F)(F)F)C(=O)[C@]2(Cc2ccccn2)C1
In vitro [1]
  fraction unbound at 5 h: 0.454
In vitro [4]
  hepatocyte CLint: 15.5 µL/min/1e6 cells
In vitro [7]
  fraction unbound at 5 h: 0.511

## CC(C)Oc1ccc2c(=O)c(-c3ccccc3)coc2c1 [IPRIFLAVONE]
In vitro [1]
  fraction unbound at 5 h: 0.0051
In vitro [3]; PPB
  fraction unbound at 5 h: 0.0053
In vitro [6]
  hepatocyte CLint: 110 µL/min/1e6 cells
Physchem [8]
  solubility thermodynamic: 2.8 µM (≈ 0.785 µg/mL)
In vitro [7]
  fraction unbound at 5 h: 0.0056
Physchem [5]; pH 7.4, LogD7.4
  logD: 4.07

## Cc1cn([C@H]2CCCN([C@H](C)c3ccc(C(=O)O)c(Oc4cccc(Cl)c4)c3)C2)c(=O)[nH]c1=O
In vitro [1]
  fraction unbound at 5 h: 0.101
In vitro [3]; PPB
  fraction unbound at 5 h: 0.0156
In vitro [6]
  hepatocyte CLint: 3.39 µL/min/1e6 cells
In vitro [7]
  fraction unbound at 5 h: 0.0293
Physchem [5]; pH 7.4, LogD7.4
  logD: -0.3

## O=C(O)[C@H](Cc1ccc(F)cc1)N1CCC(CN2CCC(Oc3ccc(Cl)c(Cl)c3)CC2)CC1
In vitro [1]
  fraction unbound at 5 h: 0.224
In vitro [3]; PPB
  fraction unbound at 5 h: 0.114
Physchem [8]
  solubility thermodynamic: 72.4 µM (≈ 36.9 µg/mL)
In vitro [7]
  fraction unbound at 5 h: 0.22
Physchem [5]; pH 7.4, LogD7.4
  logD: 2.98

## COc1cc2c(cc1-c1c(C)noc1C)ncc1[nH]c(=O)n([C@H](C)c3ccccn3)c12
In vitro [1]
  fraction unbound at 5 h: 0.105
In vitro [2]; microsomes
  microsomal CLint: 7.59 µL/min/mg
In vitro [3]; PPB
  fraction unbound at 5 h: 0.0234
In vitro [7]
  fraction unbound at 5 h: 0.0374
Physchem [5]; pH 7.4, LogD7.4
  logD: 3.15

## Cc1cn([C@H]2CCCN([C@H](CC(C)C)c3ccc(C(=O)O)c(Oc4cccc(Cl)c4)c3)C2)c(=O)[nH]c1=O
In vitro [1]
  fraction unbound at 5 h: 0.0366
In vitro [3]; PPB
  fraction unbound at 5 h: 0.0274
In vitro [6]
  hepatocyte CLint: 9.12 µL/min/1e6 cells
In vitro [7]
  fraction unbound at 5 h: 0.0175
Physchem [5]; pH 7.4, LogD7.4
  logD: 0.91

## N[C@H]1CCN(c2c(Cl)cccc2/C=C2\SC(=O)NC2=O)C1
In vitro [1]
  fraction unbound at 5 h: 0.0581
In vitro [3]; PPB
  fraction unbound at 5 h: 0.0234
In vitro [7]
  fraction unbound at 5 h: 0.0467
Physchem [5]; pH 7.4, LogD7.4
  logD: 1.89

## Cc1ccc(S(=O)(=O)Nc2c(C(=O)N[C@@H](C)C(C)(C)C)c(C)nn2C2CCOCC2)cc1
In vitro [1]
  fraction unbound at 5 h: 0.529
In vitro [2]; liver microsomes
  microsomal CLint: 7 µL/min/mg
In vitro [3]; PPB
  fraction unbound at 5 h: 0.208
In vitro [6]
  hepatocyte CLint: < 3 µL/min/1e6 cells
In vitro [7]
  fraction unbound at 5 h: 0.166

## COc1ccc(CCN2C(=O)N(NS(C)(=O)=O)C[C@@H]2c2ccc(OC)cc2)cc1
In vitro [1]
  fraction unbound at 5 h: 0.0854
In vitro [3]; PPB
  fraction unbound at 5 h: 0.0477
In vitro [4]
  hepatocyte CLint: 19.1 µL/min/1e6 cells
In vitro [7]
  fraction unbound at 5 h: 0.0191

## O=C(O)COc1ccc(Cl)cc1CN1CCN(S(=O)(=O)Cc2ccccc2)CC1
In vitro [1]
  fraction unbound at 5 h: 0.0343
In vitro [3]; PPB
  fraction unbound at 5 h: 0.0067
In vitro [4]
  hepatocyte CLint: < 3 µL/min/1e6 cells
In vitro [7]
  fraction unbound at 5 h: 0.114
Physchem [5]; pH 7.4, LogD7.4
  logD: 0.33

## C[C@H](CO)Nc1nc(SCc2ccco2)nc2[nH]c(=O)sc12
In vitro [1]
  fraction unbound at 5 h: 0.0274
In vitro [2]; microsomes
  microsomal CLint: 8.28 µL/min/mg
In vitro [3]; PPB
  fraction unbound at 5 h: 0.016
In vitro [6]
  hepatocyte CLint: 61 µL/min/1e6 cells
Physchem [5]; pH 7.4, LogD7.4
  logD: 2.21

## Cc1c(OC2CCN(CC3CCN([C@@](C)(Cc4ccc(F)cc4)C(=O)O)CC3)CC2)ccc(Cl)c1Cl
In vitro [1]
  fraction unbound at 5 h: 0.0568
In vitro [2]; liver microsomes
  microsomal CLint: < 3 µL/min/mg
In vitro [6]
  hepatocyte CLint: < 3 µL/min/1e6 cells
In vitro [7]
  fraction unbound at 5 h: 0.0752

## N#Cc1cccc(-c2cc(Cl)ccc2OCC(=O)O)c1
In vitro [1]
  fraction unbound at 5 h: 0.0234
In vitro [2]; microsomes
  microsomal CLint: < 3 µL/min/mg
In vitro [3]; PPB
  fraction unbound at 5 h: 0.0075
In vitro [7]
  fraction unbound at 5 h: 0.0343

## C[C@H](NC(=O)[C@@H](Cc1c[nH]c2ccccc12)NC(=O)[C@@H](N)Cc1c[nH]cn1)C(=O)N[C@@H](Cc1c[nH]c2ccccc12)C(=O)N[C@H](Cc1ccccc1)C(=O)N[C@@H](CCCCN)C(N)=O (HELM PEPTIDE1{H.[dW].A.W.[dF].K.[am]}$$$$V2.0)
In vitro [1]
  fraction unbound at 5 h: 0.183
In vitro [2]; liver microsomes
  microsomal CLint: 61.7 µL/min/mg
In vitro [7]
  fraction unbound at 5 h: 0.262

## CCCCNC(=O)c1ccc(Oc2ccc(CC(=O)O)cc2OC)c(NS(=O)(=O)c2ccc(Cl)cc2Cl)c1
In vitro [1]
  fraction unbound at 5 h: 0.0171
In vitro [2]; microsomes
  microsomal CLint: < 3 µL/min/mg
In vitro [3]; PPB
  fraction unbound at 5 h: 0.002
In vitro [7]
  fraction unbound at 5 h: 0.0019
